# Earlier results as cited in patent publication US20160317662A1, “STABLE ORAL PHARMACEUTICAL COMPOSITION” (H[…].A., priority 2013, published 2016).
# Details: aqueous solutions; state of the art
smiles,measurement,value
"COc1ccc2c3c1O[C@H]1[C@@H](O)C=C[C@H]4C(C2)N(C)CC[C@@]341 [codeine, codein phosphate hemihydrate]",pH around which solutions are relatively stable,~3.5
